Data on one compound can be found in ChEMBL document CHEMBL1165947, “Synthesis and antitumor activity of 2,5-bis(3'-indolyl)-furans and 3,5-bis(3'-indolyl)-isoxazoles, nortopsentin analogues” (Bioorg Med Chem, 2010).

This assay relates to P388. Put plainly: Cytotoxicity against mouse P388 cells. The class given is functional, cell-based.

On to `Cn1c(-c2cn(C)c3cc(Br)ccc23)cnc1-c1cn(C)c2ccccc12`, for which the midpoint of inhibition, the IC50, lay at 0.8 µM.
